In patent US12492173B2, “Herbicidal substituted N-tetrazolyl aryl carboxamides” (Bayer Aktiengesellschaft, priority 2019, dated 2025):

What was measured:
Type in all cases: in vivo
[1] = tested on: Veronica persica; experiment: Post-emergence herbicidal action, VERPE; parameters: key: % herbicidal action vs untreated; 100 = plants died, 0 = like control; conditions: post-emergence, dosage 80 g/ha
Experimental: (§1) [table] 2. Post-Emergence Herbicidal Action Against Harmful Plants Seeds of monocotyledonous and dicotyledonous weed and crop plants are laid out in sandy loam soil in wood-fiber pots, covered with soil and cultivated in a greenhouse under good growth conditions. 2 to 3 weeks after sowing, the test plants are treated at the one-leaf stage. The compounds of the invention, formulated in the form of wettable powders (WP) or as emulsion concentrates (EC), are then sprayed onto the green parts of the plants in the form of an aqueous suspension or emulsion at a water application rate equating to 600 to 800 l/ha, with addition of 0.2% wetting agent. After the test plants have been left to stand in the greenhouse under optimal growth conditions for about 3 weeks, the action of the preparations is assessed visually in comparison to untreated controls (herbicidal action in percent (%): 100% activity=the plants have died, 0% activity=like control plants). […] The tables below illustrate, in an exemplary manner, the post-emergence herbicidal action of the compounds according to the invention, the herbicidal activity being stated in percent. In the experiments that follow, herbicidal action of numerous inventive compounds and the known compounds that are structurally closest from D1 (WO 2012/028579 A1) and D2 (WO 2018/202535 A1) were compared under the above-specified conditions by the pre-emergence and post-emergence method. The example numbers given in the tables relate to the compounds disclosed in the respective documents. In addition to the compounds disclosed in D1 and D2, the following compounds V-1 to V-14 that are encompassed by D1 or D2 but are not compounds specified therein were used in the comparative experiments: • V-1: 2-(methylsulfanyl)-3-(methylsulfinyl)-N-(1-methyl-1H-tetrazol-5-yl)-4-(trifluoromethyl)benzamide • V-2: 2-(methylsulfanyl)-3-(methylsulfonyl)-N-(1-methyl-1H-tetrazol-5-yl)-4-(trifluoromethyl)benzamide • V-3: 2,3-bis(ethylsulfanyl)-N-(1-methyl-1H-tetrazol-5-yl)-4-(trifluoromethyl)benzamide • V-4: 2-chloro-3-(ethylsulfanyl)-N-(1-methyl-1H-tetrazol-5-yl)-4-(trifluoromethyl)benzamide • V-5: 2-chloro-4-iodo-3-(methylsulfanyl)-N-(1-methyl-1H-tetrazol-5-yl)benzamide • V-6: 2-chloro-4-iodo-3-(methylsulfinyl)-N-(1-methyl-1H-tetrazol-5-yl)benzamide • V-7: 2-chloro-4-iodo-3-(methylsulfonyl)-N-(1-methyl-1H-tetrazol-5-yl)benzamide • V-8: 2-bromo-3-(methylsulfanyl)-N-(1-methyl-1H-tetrazol-5-yl)-4-(trifluoromethyl)benzamide • V-9: 2-bromo-3-(methylsulfinyl)-N-(1-methyl-1H-tetrazol-5-yl)-4-(trifluoromethyl)benzamide • V-10: 2-bromo-3-(methylsulfonyl)-N-(1-methyl-1H-tetrazol-5-yl)-4-(trifluoromethyl)benzamide • V-11: 2-bromo-3-(ethylsulfanyl)-N-(1-methyl-1H-tetrazol-5-yl)-4-(trifluoromethyl)benzamide • V-12: 2-bromo-3-(ethylsulfinyl)-N-(1-methyl-1H-tetrazol-5-yl)-4-(trifluoromethyl)benzamide • V-13: 2-bromo-3-(ethylsulfonyl)-N-(1-methyl-1-1H-tetrazol-5-yl)-4-(trifluoromethyl)benzamide • V-14: 2-cyclopropyl-3-(ethylsulfanyl)-N-(1-methyl-1H-tetrazol-5-yl)-4-(trifluoromethyl)benzamide Herbicidal Pre-Emergence Action: […]

[2] = tested on: Amaranthus retroflexus; experiment: Post-emergence herbicidal action, AMARE; parameters: key: % herbicidal action vs untreated; 100 = plants died, 0 = like control; conditions: post-emergence, dosage 80 g/ha
Experimental: as §1

[3] = tested on: Veronica persica; experiment: Pre-emergence herbicidal action, VERPE; parameters: key to Herbicidal action against VERPE: % activity: 100 = plants have died, 0 = like control plants; conditions: for herbicidal action VERPE: dosage 320 g/ha
Description: (§2) 1. Pre-Emergence Herbicidal Action Against Harmful Plants Seeds of monocotyledonous and dicotyledonous weed plants and crop plants are laid out in sandy loam soil in wood-fiber pots and covered with soil. The compounds of the invention, formulated in the form of wettable powders (WP) or as emulsion concentrates (EC), are then applied to the surface of the covering soil in the form of an aqueous suspension or emulsion at a water application rate equating to 600 to 800 l/ha, with addition of 0.2% wetting agent. After the treatment, the pots are placed in a greenhouse and kept under good growth conditions for the trial plants. The damage to the test plants is scored visually after a test period of 3 weeks by comparison with untreated controls (herbicidal activity in percent (%): 100% activity=the plants have died, 0% activity=like control plants). […] The tables below illustrate, in an exemplary manner, the […] herbicidal action of the compounds according to the invention, the herbicidal activity being stated in percent. [table] In the experiments that follow, herbicidal action of numerous inventive compounds and the known compounds that are structurally closest from D1 (WO 2012/028579 A1) and D2 (WO 2018/202535 A1) were compared under the above-specified conditions by the pre-emergence and post-emergence method. The example numbers given in the tables relate to the compounds disclosed in the respective documents. In addition to the compounds disclosed in D1 and D2, the following compounds V-1 to V-14 that are encompassed by D1 or D2 but are not compounds specified therein were used in the comparative experiments: • V-1: 2-(methylsulfanyl)-3-(methylsulfinyl)-N-(1-methyl-1H-tetrazol-5-yl)-4-(trifluoromethyl)benzamide • V-2: 2-(methylsulfanyl)-3-(methylsulfonyl)-N-(1-methyl-1H-tetrazol-5-yl)-4-(trifluoromethyl)benzamide • V-3: 2,3-bis(ethylsulfanyl)-N-(1-methyl-1H-tetrazol-5-yl)-4-(trifluoromethyl)benzamide • V-4: 2-chloro-3-(ethylsulfanyl)-N-(1-methyl-1H-tetrazol-5-yl)-4-(trifluoromethyl)benzamide • V-5: 2-chloro-4-iodo-3-(methylsulfanyl)-N-(1-methyl-1H-tetrazol-5-yl)benzamide • V-6: 2-chloro-4-iodo-3-(methylsulfinyl)-N-(1-methyl-1H-tetrazol-5-yl)benzamide • V-7: 2-chloro-4-iodo-3-(methylsulfonyl)-N-(1-methyl-1H-tetrazol-5-yl)benzamide • V-8: 2-bromo-3-(methylsulfanyl)-N-(1-methyl-1H-tetrazol-5-yl)-4-(trifluoromethyl)benzamide • V-9: 2-bromo-3-(methylsulfinyl)-N-(1-methyl-1H-tetrazol-5-yl)-4-(trifluoromethyl)benzamide • V-10: 2-bromo-3-(methylsulfonyl)-N-(1-methyl-1H-tetrazol-5-yl)-4-(trifluoromethyl)benzamide • V-11: 2-bromo-3-(ethylsulfanyl)-N-(1-methyl-1H-tetrazol-5-yl)-4-(trifluoromethyl)benzamide • V-12: 2-bromo-3-(ethylsulfinyl)-N-(1-methyl-1H-tetrazol-5-yl)-4-(trifluoromethyl)benzamide • V-13: 2-bromo-3-(ethylsulfonyl)-N-(1-methyl-1-1H-tetrazol-5-yl)-4-(trifluoromethyl)benzamide • V-14: 2-cyclopropyl-3-(ethylsulfanyl)-N-(1-methyl-1H-tetrazol-5-yl)-4-(trifluoromethyl)benzamide Herbicidal Pre-Emergence Action: […]

[4] = tested on: Stellaria media; experiment: Pre-emergence herbicidal action, STEME; parameters: key to Herbicidal action against STEME: % activity: 100 = plants have died, 0 = like control plants; conditions: for herbicidal action STEME: dosage 320 g/ha
Description: as §2

[5] = tested on: Viola tricolor; experiment: Pre-emergence herbicidal action, VIOTR; conditions: dosage 320 g/ha
Description: as §2

[6] = tested on: Matricaria inodora; experiment: Post-emergence herbicidal action, MATIN; parameters: key: % herbicidal action vs untreated; 100 = plants died, 0 = like control; conditions: post-emergence, dosage 80 g/ha
Experimental: as §1

[7] = tested on: Polygonum convolvulus; experiment: Pre-emergence herbicidal action, POLCO; conditions: for herbicidal action POLCO: dosage 320 g/ha
Description: as §2

[8] = tested on: Echinochloa crus-galli; experiment: Post-emergence herbicidal action, ECHCG; parameters: key: % herbicidal action vs untreated; 100 = plants died, 0 = like control; conditions: post-emergence, dosage 80 g/ha
Experimental: as §1

[9] = tested on: Setaria viridis; experiment: Post-emergence herbicidal action, SETVI; parameters: key: % herbicidal action vs untreated; 100 = plants died, 0 = like control; conditions: post-emergence, dosage 80 g/ha
Experimental: as §1

[10] = tested on: Viola tricolor; experiment: Post-emergence herbicidal action, VIOTR; parameters: key: % herbicidal action vs untreated; 100 = plants died, 0 = like control; conditions: post-emergence, dosage 80 g/ha
Experimental: as §1

[11] = tested on: Abutilon theophrasti; experiment: Post-emergence herbicidal action, ABUTH; parameters: key: % herbicidal action vs untreated; 100 = plants died, 0 = like control; conditions: post-emergence, dosage 80 g/ha
Experimental: as §1

[12] = tested on: Matricaria inodora; experiment: Pre-emergence herbicidal action, MATIN; conditions: dosage 320 g/ha
Description: as §2

[13] = tested on: Amaranthus retroflexus; experiment: Pre-emergence herbicidal action, AMARE; parameters: key to Herbicidal action against AMARE: % activity: 100 = plants have died, 0 = like control plants; conditions: for herbicidal action AMARE: dosage 320 g/ha
Description: as §2

[14] = tested on: Stellaria media; experiment: Post-emergence herbicidal action, STEME; parameters: key: % herbicidal action vs untreated; 100 = plants died, 0 = like control; conditions: post-emergence, dosage 80 g/ha
Experimental: as §1

[15] = tested on: Echinochloa crus-galli; experiment: Pre-emergence herbicidal action, ECHCG; conditions: for herbicidal action ECHCG: dosage 320 g/ha
Description: as §2

[16] = tested on: Pharbitis purpurea; experiment: Post-emergence herbicidal action, PHBPU; conditions: post-emergence, dosage 80 g/ha
Experimental: as §1

[17] = tested on: Polygonum convolvulus; experiment: Post-emergence herbicidal action, POLCO; conditions: post-emergence, dosage 80 g/ha
Experimental: as §1

[18] = tested on: Abutilon theophrasti; experiment: Pre-emergence herbicidal action, ABUTH; conditions: dosage 320 g/ha
Description: as §2

[19] = tested on: Setaria viridis; experiment: Pre-emergence herbicidal action, SETVI; parameters: key to Herbicidal action against SETVI: % activity: 100 = plants have died, 0 = like control plants; conditions: for herbicidal action SETVI: dosage 320 g/ha
Description: as §2

[20] = tested on: Avena fatua; experiment: Post-emergence herbicidal action, AVEFA; parameters: key: % herbicidal action vs untreated; 100 = plants died, 0 = like control; conditions: post-emergence, dosage 80 g/ha
Experimental: as §1

[21] = comparative experiment, 20 g of a.i./ha

Structure (SMILES) | Herbicidal action against VERPE [1] | Herbicidal action against AMARE [2] | herbicidal action VERPE [3] [%] | herbicidal action STEME [4] [%] | herbicidal action VIOTR [5] [%] | Herbicidal action against MATIN [6] | herbicidal action POLCO [7] [%] | Herbicidal action against ECHCG [8] | Herbicidal action against SETVI [9] | Herbicidal action against VIOTR [10] | Herbicidal action against ABUTH [11] | herbicidal action MATIN [12] [%] | herbicidal action AMARE [13] [%] | Herbicidal action against STEME [14] | herbicidal action ECHCG [15] [%] | Herbicidal action against PHBPU [16] | Herbicidal action against POLCO [17] | herbicidal action ABUTH [18] [%] | herbicidal action SETVI [19] [%] | further results
CCCn1nnnc1NC(=O)c1ccc(S(C)(=O)=O)c(C[S+](C)[O-])c1C (stereo not drawn) [Example 3-38] | 100 | 100 | 100 | 90 | 100 | 80 | 80 | 90 | 80 | 100 | 90 | 100 | 90 | 100 |  |  |  |  |  | 
CCS(=O)(=O)Cc1c(C(F)F)ccc(C(=O)Nc2nnnn2C)c1S(=O)(=O)CC [Example 1-229] | 90 | 80 | 100 | 100 | 100 |  | 100 | 90 |  | 90 | 100 | 90 | 100 | 100 | 100 | 80 | 80 |  |  | 
CCCn1nnnc1NC(=O)c1ccc(C)c(CS(C)(=O)=O)c1Cl [Example 3-289] | 90 | 90 | 90 |  |  | 100 | 80 | 90 |  |  | 80 | 100 | 100 | 90 | 100 |  |  | 80 |  | 
Cn1nnnc1NC(=O)c1ccc(I)c(S(C)(=O)=O)c1Cl [Example V-7, 2-chloro-4-iodo-3-(methylsulfonyl)-N-(1-methyl-1H-tetrazol-5-yl)benzamide, reference compound] |  |  |  |  |  |  |  |  |  |  |  |  |  |  |  |  |  |  |  | Herbicidal action against VERPE [3, 21]: 40; pest or weed control at 20 g/ha ([15]; Echinochloa crus-galli, 504 h, comparative experiment, 20 g of a.i./ha, read-out: Herbicidal action against ECHCG): 10%; Herbicidal action against STEME [4, 21]: 0; Herbicidal action against POLCO [7, 21]: 0; Herbicidal action against AMARE [13, 21]: 30; Herbicidal action against SETVI [19, 21]: 0
CCCn1nnnc1NC(=O)c1ccc(C(F)F)c(C[S+](C)[O-])c1C (stereo not drawn) [Example 3-108] | 100 | 80 | 90 |  | 100 | 90 |  | 80 |  | 100 |  | 100 | 100 | 100 | 90 | 100 |  | 100 | 90 | Herbicidal action against AVEFA [20]: 80
CCn1nnnc1NC(=O)c1ccc(C)c(CS(C)(=O)=O)c1Cl [Example 2-289] | 90 | 100 | 90 | 90 |  | 100 | 80 | 100 | 100 | 80 |  | 100 | 100 | 100 | 100 | 90 | 80 |  | 100 | 
